Results reported in publication PMC6979384, “Characterization of the plant homeodomain (PHD) reader family for their histone tail interactions” (Epigenetics & Chromatin, 2020).

Experiments:
Experiment in all cases: Histone peptide microarray
Type in all cases: binding, human
Conditions in all cases: histone peptide array
[1] = test system: AIRE (PP)
Procedure, shortened: (§1)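 Readout is array binding signal, reported as the mean and standard deviation over four replicates. Each purified GST-fused PHD domain was incubated at 0.5 μM with a library of 293 modified histone peptides.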

[2] = test system: BAZ2B
Procedure, shortened: as §1

[3] = test system: BPTF (PB)
Procedure, shortened: as §1

[4] = test system: CHD4 (PPCC)
Procedure, shortened: as §1

[5] = test system: CHD5 (PCC)
Procedure, shortened: as §1

[6] = test system: CHD5 (PPCC)
Procedure, shortened: as §1

[7] = test system: DIDO1
Procedure, shortened: as §1

[8] = test system: DPF2 (PPC2W2)
Procedure, shortened: as §1

[9] = test system: ING1
Procedure, shortened: as §1

[10] = test system: ING2
Procedure, shortened: as §1

[11] = test system: ING3
Procedure, shortened: as §1

[12] = test system: ING4
Procedure, shortened: as §1

[13] = test system: ING5
Procedure, shortened: as §1

[14] = test system: KDM4C (TTP)
Procedure, shortened: as §1

[15] = test system: KDM5A (1)
Procedure, shortened: as §1

[16] = test system: KDM5A (3)
Procedure, shortened: as §1

[17] = test system: KDM5B (1)
Procedure, shortened: as §1

[18] = test system: KDM5B (3)
Procedure, shortened: as §1

[19] = test system: KDM7A
Procedure, shortened: as §1

[20] = test system: MLL5
Procedure, shortened: as §1

[21] = test system: MORC3 (CW)
Procedure, shortened: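 GST-tagged PHD readers, 0.5 μM, probed on a microarray of 293 synthetic histone peptides carrying single or combinatorial PTMs (optimized Petell protocol). Signals are averaged over 4 replicates and expressed as relative binding.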

[22] = test system: PHF13
Procedure, shortened: as §1

[23] = test system: PHF21A
Procedure, shortened: as §1

[24] = test system: PHF23
Procedure, shortened: as §1

[25] = test system: PHF2
Procedure, shortened: as §1

[26] = test system: PHF8
Procedure, shortened: as §1

[27] = test system: PHRF1 (RP)
Procedure, shortened: as §1

[28] = test system: RAG2
Procedure, shortened: as §1

[29] = test system: SP140L
Procedure, shortened: as §1

[30] = test system: TAF3
Procedure, shortened: as §1

[31] = test system: TRIM66 (PB)
Procedure, shortened: as §1

[32] = sheet "Array Heatmap", GST-tagged reader, total n = 4
[33] = GST-tagged reader, arrays performed twice, n of 4
[34] = GST-tagged reader, PB = PHD + Bromodomain, arrays performed twice, n of 4
[35] = GST-tagged reader, PPCC = Dual PHD + Dual Chromodomain, arrays performed twice, n of 4

H3T6p: H3 1-20 [Peptide H3T6p]
Array Heatmap signal, AIRE (PP) [1, 32]: 0.5235 | Array Heatmap signal, BAZ2B [2, 32]: 0.5538 | Array Heatmap signal, BPTF (PB) [3, 32]: 0.4149 | Array Heatmap signal, CHD4 (PPCC) [4, 32]: 0.6596 | Array Heatmap signal, CHD5 (PCC) [5, 32]: 0.9074 | Array Heatmap signal, CHD5 (PPCC) [6, 32]: 0.6595 | Array Heatmap signal, DIDO1 [7, 32]: 0.87 | Array Heatmap signal, DPF2 (PPC2W2) [8, 32]: 0.8292 | Array Heatmap signal, ING1 [9, 32]: 0.6423 | Array Heatmap signal, ING2 [10, 32]: 0.6272 | Array Heatmap signal, ING3 [11, 32]: 0.5766 | Array Heatmap signal, ING4 [12, 32]: 0.5347 | Array Heatmap signal, ING5 [13, 32]: 0.4298 | Array Heatmap signal, KDM4C (TTP) [14, 32]: 0.5715 | Array Heatmap signal, KDM5A (1) [15, 32]: 0.5432 | Array Heatmap signal, KDM5A (3) [16, 32]: 0.5721 | Array Heatmap signal, KDM5B (1) [17, 32]: 0.7098 | Array Heatmap signal, KDM5B (3) [18, 32]: 0.5406 | Array Heatmap signal, KDM7A [19, 32]: 0.3941 | Array Heatmap signal, MLL5 [20, 32]: 0.6202 | Array Heatmap signal, MORC3 (CW) [21, 32]: 0.5106 | Array Heatmap signal, PHF13 [22, 32]: 0.7024 | Array Heatmap signal, PHF21A [23, 32]: 0.4969 | Array Heatmap signal, PHF23 [24, 32]: 0.6281 | Array Heatmap signal, PHF2 [25, 32]: 0.6372 | Array Heatmap signal, PHF8 [26, 32]: 0.4328 | Array Heatmap signal, PHRF1 (RP) [27, 32]: 0.6983 | Array Heatmap signal, RAG2 [28, 32]: 0.3038 | Array Heatmap signal, SP140L [29, 32]: 0.3962 | Array Heatmap signal, TAF3 [30, 32]: 0.311 | Array Heatmap signal, TRIM66 (PB) [31, 32]: 0.7122

H4 (1-23): H4 1-23
Array Heatmap signal, AIRE (PP) ([1]; GST-tagged AIRE (PP), arrays performed twice, n of 4): 0.4854 | Array Heatmap signal, BAZ2B ([2]; GST-tagged BAZ2B, arrays performed twice, n of 4): 0.467 | Array Heatmap signal, BPTF (PB) ([3]; GST-tagged BPTF (PB = PHD + Bromodomain), arrays performed twice, n of 4): 0.3416 | Array Heatmap signal, CHD4 (PPCC) ([4]; GST-tagged CHD4 (PPCC = Dual PHD + Dual Chromodomain), arrays performed twice, n of 4): 0.5522 | Array Heatmap signal, CHD5 (PCC) ([5]; GST-tagged CHD5 (PCC = PHD + Dual Chromodomain), arrays performed twice, n of 4): 0.772 | Array Heatmap signal, CHD5 (PPCC) ([6]; GST-tagged CHD5 (PPCC = Dual PHD + Dual Chromodomain), arrays performed twice, n of 4): 0.5714 | Array Heatmap signal, DIDO1 ([7]; GST-tagged DIDO1, arrays performed twice, n of 4): 0.6189 | Array Heatmap signal, DPF2 (PPC2W2) ([8]; GST-tagged DPF2 (PPC2W2 = Dual PHD + C2W2-type Zn-finger), arrays performed twice, n of 4): 0.7352 | Array Heatmap signal, ING1 ([9]; GST-tagged ING1, arrays performed twice, n of 4): 0.4959 | Array Heatmap signal, ING2 ([10]; GST-tagged ING2, arrays performed twice, n of 4): 0.5875 | Array Heatmap signal, ING3 ([11]; GST-tagged ING3, arrays performed twice, n of 4): 0.4725 | Array Heatmap signal, ING4 ([12]; GST-tagged ING4, arrays performed twice, n of 4): 0.4424 | Array Heatmap signal, ING5 ([13]; GST-tagged ING5, arrays performed twice, n of 4): 0.3618 | Array Heatmap signal, KDM4C (TTP) ([14]; GST-tagged KDM4C (TTP = Tandem Tudor domain + PHD), arrays performed twice, n of 4): 0.5139 | Array Heatmap signal, KDM5A (1) ([15]; GST-tagged KDM5A (1), arrays performed twice, n of 4): 0.4868 | Array Heatmap signal, KDM5A (3) ([16]; GST-tagged KDM5A (3), arrays performed twice, n of 4): 0.4566 | Array Heatmap signal, KDM5B (1) ([17]; GST-tagged KDM5B (1), arrays performed twice, n of 4): 0.7073 | Array Heatmap signal, KDM5B (3) ([18]; GST-tagged KDM5B (3), arrays performed twice, n of 4): 0.4835 | Array Heatmap signal, KDM7A ([19]; GST-tagged KDM7A, arrays performed twice, n of 4): 0.4019 | Array Heatmap signal, MLL5 ([20]; GST-tagged MLL5, arrays performed twice, n of 4): 0.5337 | Array Heatmap signal, MORC3 (CW) ([21]; GST-tagged MORC3 (CW = CW-type Zn-finger), arrays performed twice, n of 4): 0.3892 | Array Heatmap signal, PHF13 ([22]; GST-tagged PHF13, arrays performed twice, n of 4): 0.625 | Array Heatmap signal, PHF21A ([23]; GST-tagged PHF21A, arrays performed twice, n of 4): 0.4603 | Array Heatmap signal, PHF23 ([24]; GST-tagged PHF23, arrays performed twice, n of 4): 0.53 | Array Heatmap signal, PHF2 ([25]; GST-tagged PHF2, arrays performed twice, n of 4): 0.4784 | Array Heatmap signal, PHF8 ([26]; GST-tagged PHF8, arrays performed twice, n of 4): 0.3699 | Array Heatmap signal, PHRF1 (RP) ([27]; GST-tagged PHRF1 (RP), arrays performed twice, n of 4): 0.532 | Array Heatmap signal, RAG2 ([28]; GST-tagged RAG2, arrays performed twice, n of 4): 0.2838 | Array Heatmap signal, SP140L ([29]; GST-tagged SP140L, arrays performed twice, n of 4): 0.3814 | Array Heatmap signal, TAF3 ([30]; GST-tagged TAF3, arrays performed twice, n of 4): 0.3843 | Array Heatmap signal, TRIM66 (PB) ([31]; GST-tagged TRIM66 (PB = PHD + Bromodomain), arrays performed twice, n of 4): 0.7288

H4 (1-24): H4 1-24
Array Heatmap signal, AIRE (PP) [1, 33]: 0.4377 | Array Heatmap signal, BAZ2B [2, 33]: 0.4426 | Array Heatmap signal, BPTF (PB) [3, 34]: 0.3511 | Array Heatmap signal, CHD4 (PPCC) [4, 35]: 0.5779 | Array Heatmap signal, CHD5 (PCC) ([5]; GST-tagged reader, PCC = PHD + Dual Chromodomain, arrays performed twice, n of 4): 0.7379 | Array Heatmap signal, CHD5 (PPCC) [6, 35]: 0.5427 | Array Heatmap signal, DIDO1 [7, 33]: 0.6429 | Array Heatmap signal, DPF2 (PPC2W2) ([8]; GST-tagged reader, PPC2W2 = Dual PHD + C2W2-type Zn-finger, arrays performed twice, n of 4): 0.6876 | Array Heatmap signal, ING1 [9, 33]: 0.5158 | Array Heatmap signal, ING2 [10, 33]: 0.5969 | Array Heatmap signal, ING3 [11, 33]: 0.4908 | Array Heatmap signal, ING4 [12, 33]: 0.4561 | Array Heatmap signal, ING5 [13, 33]: 0.3526 | Array Heatmap signal, KDM4C (TTP) ([14]; GST-tagged reader, TTP = Tandem Tudor domain + PHD, arrays performed twice, n of 4): 0.4748 | Array Heatmap signal, KDM5A (1) [15, 33]: 0.4479 | Array Heatmap signal, KDM5A (3) [16, 33]: 0.4381 | Array Heatmap signal, KDM5B (1) [17, 33]: 0.6708 | Array Heatmap signal, KDM5B (3) [18, 33]: 0.458 | Array Heatmap signal, KDM7A [19, 33]: 0.3276 | Array Heatmap signal, MLL5 [20, 33]: 0.528 | Array Heatmap signal, MORC3 (CW) ([21]; GST-tagged reader, CW = CW-type Zn-finger, arrays performed twice, n of 4): 0.3968 | Array Heatmap signal, PHF13 [22, 33]: 0.6132 | Array Heatmap signal, PHF21A [23, 33]: 0.4744 | Array Heatmap signal, PHF23 [24, 33]: 0.5274 | Array Heatmap signal, PHF2 [25, 33]: 0.4794 | Array Heatmap signal, PHF8 [26, 33]: 0.3446 | Array Heatmap signal, PHRF1 (RP) [27, 33]: 0.5307 | Array Heatmap signal, RAG2 [28, 33]: 0.2506 | Array Heatmap signal, SP140L [29, 33]: 0.3819 | Array Heatmap signal, TAF3 [30, 33]: 0.2583 | Array Heatmap signal, TRIM66 (PB) [31, 34]: 0.5969
